# Biological target: T1, Androgen Receptor (AR) protein (Homo sapiens, UniProt P10275, T878A)
# T1 construct: endogenous in cells; host or cells: LNCaP
# Test: Androgen Receptor (AR) protein degradation assay in LNCaP cells, western blotting
# Type: cell-based
# Settings: 20 h; for inhibition at 0.01 µM: 0.01 μM compound; for inhibition at 0.1 µM: 0.1 μM compound; for inhibition at 1 µM: 1 μM compound
# In short: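 LNCaP prostate cancer cells were cultured 3 days, then treated with compound for 20 h. Lysates in 1% SDS buffer were normalised by BCA, and 8 μg protein was run on 4–12% Bis-Tris gels. AR was immunoblotted with chemiluminescence, using GAPDH/β-actin as loading controls.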
# T1 sequence (P10275 whole entry T878A): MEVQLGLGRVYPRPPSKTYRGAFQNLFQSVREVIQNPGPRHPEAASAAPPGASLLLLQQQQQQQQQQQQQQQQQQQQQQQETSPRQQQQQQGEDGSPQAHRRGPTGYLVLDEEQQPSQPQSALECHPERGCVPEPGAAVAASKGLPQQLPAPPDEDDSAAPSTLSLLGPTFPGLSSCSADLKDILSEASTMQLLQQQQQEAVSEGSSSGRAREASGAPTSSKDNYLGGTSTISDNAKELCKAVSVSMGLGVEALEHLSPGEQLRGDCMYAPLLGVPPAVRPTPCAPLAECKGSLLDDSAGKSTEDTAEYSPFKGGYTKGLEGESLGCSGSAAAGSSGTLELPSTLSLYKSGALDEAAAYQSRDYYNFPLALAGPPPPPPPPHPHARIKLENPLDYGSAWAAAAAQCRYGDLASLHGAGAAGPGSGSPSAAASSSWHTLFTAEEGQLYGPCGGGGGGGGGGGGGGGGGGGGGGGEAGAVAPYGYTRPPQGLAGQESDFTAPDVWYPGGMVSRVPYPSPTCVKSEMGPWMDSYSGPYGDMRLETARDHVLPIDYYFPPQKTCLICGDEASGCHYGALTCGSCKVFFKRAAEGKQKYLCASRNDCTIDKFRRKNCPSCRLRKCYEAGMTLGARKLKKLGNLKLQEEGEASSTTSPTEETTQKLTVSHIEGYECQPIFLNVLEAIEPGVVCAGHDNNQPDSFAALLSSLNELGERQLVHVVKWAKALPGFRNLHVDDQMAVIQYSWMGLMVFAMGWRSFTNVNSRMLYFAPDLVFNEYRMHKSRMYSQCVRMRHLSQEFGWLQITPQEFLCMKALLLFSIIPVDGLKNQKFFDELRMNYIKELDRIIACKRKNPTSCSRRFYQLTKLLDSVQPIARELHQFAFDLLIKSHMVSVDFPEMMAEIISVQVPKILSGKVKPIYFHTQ
# T1 sequence (Q96SW2 whole entry partner): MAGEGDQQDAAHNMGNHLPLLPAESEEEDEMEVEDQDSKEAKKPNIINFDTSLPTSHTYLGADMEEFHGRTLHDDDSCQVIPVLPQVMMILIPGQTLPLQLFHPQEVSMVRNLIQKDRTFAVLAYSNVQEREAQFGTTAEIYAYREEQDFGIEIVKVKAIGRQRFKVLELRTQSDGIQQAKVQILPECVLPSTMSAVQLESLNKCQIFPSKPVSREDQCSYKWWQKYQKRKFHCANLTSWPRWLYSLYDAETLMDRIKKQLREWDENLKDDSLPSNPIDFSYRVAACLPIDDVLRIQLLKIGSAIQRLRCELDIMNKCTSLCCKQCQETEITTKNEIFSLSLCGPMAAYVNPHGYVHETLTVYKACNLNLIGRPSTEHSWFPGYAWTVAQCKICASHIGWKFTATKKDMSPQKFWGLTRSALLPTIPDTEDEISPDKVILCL
SMILES,inhibition at 0.01 µM,inhibition at 0.1 µM,inhibition at 1 µM,inhibition at 10 µM (10 μM compound)
"N#Cc1ccc(N2CCC(C(=O)Nc3cnc(N4CCC(CN5CC6(CCN(c7ccc8c(c7)C(=O)N(C7CCC(=O)NC7=O)C8=O)CC6)C5)CC4)cn3)CC2)cc1C(F)(F)F (stereo not shown) [Example 155, 1-(4-cyano-3-(trifluoromethyl)phenyl)-N-(5-(4-((7-(2-(2,6-dioxopiperidin-3-yl)-1,3-dioxoisoindolin-5-yl)-2,7-diazaspiro[3.5]nonan-2-yl)methyl)piperidin-1-yl)pyrazin-2-yl)piperidine-4-carboxamide]",38%,89%,98%,
"N#Cc1ccc(N2CCC(C(=O)Nc3ccc(N4CCC(CCN5CCN(c6cccc7c6C(=O)N(C6CCC(=O)NC6=O)C7=O)CC5)CC4)cn3)CC2)cc1C(F)(F)F (stereo not shown) [Example 93, 1-(4-cyano-3-(trifluoromethyl)phenyl)-N-(5-(4-(2-(4-(2-(2,6-dioxopiperidin-3-yl)-1,3-dioxoisoindolin-4-yl)piperazin-1-yl)ethyl)piperidin-1-yl)pyridin-2-yl)piperidine-4-carboxamide]",-11%,55%,68%,
"N#Cc1ccc(N2CCC(C(=O)Nc3ccc(OCC4CCN(CC5CCN(c6ccc7c(c6)C(=O)N(C6CCC(=O)NC6=O)C7=O)CC5)CC4)cn3)CC2)cc1C(F)(F)F (stereo not shown) [Example 174, 1-(4-cyano-3-(trifluoromethyl)phenyl)-N-(5-((1-((1-(2-(2,6-dioxopiperidin-3-yl)-1,3-dioxoisoindolin-5-yl)piperidin-4-yl)methyl)piperidin-4-yl)methoxy)pyridin-2-yl)piperidine-4-carboxamide]",73%,91%,95%,
"N#Cc1ncc(N2CCC(F)(C(=O)Nc3ccc(N4CCC(CN5CC6(CCN(c7ccc8c(c7)C(=O)N(C7CCC(=O)NC7=O)C8=O)CC6)C5)CC4)cn3)CC2)cc1C(F)(F)F (stereo not shown) [Example 58, 1-(6-cyano-5-(trifluoromethyl)pyridin-3-yl)-N-(5-(4-((7-(2-(2,6-dioxopiperidin-3-yl)-1,3-dioxoisoindolin-5-yl)-2,7-diazaspiro[3.5]nonan-2-yl)methyl)piperidin-1-yl)pyridin-2-yl)-4-fluoropiperidine-4-carboxamide]",16%,41%,77%,
"COc1ccc(C(=O)N2CC3(CCN(CC4CCN(c5ccc(NC(=O)C6CCN(c7ccc(C#N)c(C(F)(F)F)c7)CC6)nc5)CC4)CC3)C2)cc1N1CCC(=O)NC1=O [Example 65, 1-(4-cyano-3-(trifluoromethyl)phenyl)-N-(5-(4-((2-(3-(2,4-dioxotetrahydropyrimidin-1(2H)-yl)-4-methoxybenzoyl)-2,7-diazaspiro[3.5]nonan-7-yl)methyl)piperidin-1-yl)pyridin-2-yl)piperidine-4-carboxamide]",55%,80%,82%,63%
"C[C@H]1CN(CC2CCN(c3ccc4c(n3)CN(C3CCC(=O)NC3=O)C4=O)CC2)CCN1CC1CCN(c2ccc(NC(=O)C3CCN(c4ccc(C#N)c(C(F)(F)F)c4)CC3)nc2)CC1 (stereo partly drawn) [Example 46, 1-(4-cyano-3-(trifluoromethyl)phenyl)-N-(5-(4-(((2S)-4-((1-(6-(2,6-dioxopiperidin-3-yl)-5-oxo-6,7-dihydro-5H-pyrrolo[3,4-b]pyridin-2-yl)piperidin-4-yl)methyl)-2-methylpiperazin-1-yl)methyl)piperidin-1-yl)pyridin-2-yl)piperidine-4-carboxamide]",70%,97%,91%,
"N#Cc1ccc(N2CCC(C(=O)Nc3ccc(N4CCC(CN5CCN(CC6CCN(c7ccc8c(c7)C(=O)N(C7CCC(=O)NC7=O)C8=O)CC6)CC5)CC4)cc3)CC2)cc1C(F)(F)F (stereo not shown) [Example 21, 1-(4-cyano-3-(trifluoromethyl)phenyl)-N-(4-(4-((4-((1-(2-(2,6-dioxopiperidin-3-yl)-1,3-dioxoisoindolin-5-yl)piperidin-4-yl)methyl)piperazin-1-yl)methyl)piperidin-1-yl)phenyl)piperidine-4-carboxamide]",47%,50%,63%,
"N#Cc1ccc(N2CCC(C(=O)Nc3ccc(CN4CCN(CC5CCN(c6ccc7c(c6)C(=O)N(C6CCC(=O)NC6=O)C7=O)CC5)CC4)cn3)CC2)cc1C(F)(F)F (stereo not shown) [Example 162, 1-(4-cyano-3-(trifluoromethyl)phenyl)-N-(5-((4-((1-(2-(2,6-dioxopiperidin-3-yl)-1,3-dioxoisoindolin-5-yl)piperidin-4-yl)methyl)piperazin-1-yl)methyl)pyridin-2-yl)piperidine-4-carboxamide]",62%,95%,97%,
"N#Cc1ncc(N2CCC(C(=O)Nc3ccc(N4CCC(CN5CCN(C6CCN(c7ccc8c(c7)C(=O)N(C7CCC(=O)NC7=O)C8=O)CC6)CC5)CC4)cn3)CC2)cc1C(F)(F)F (stereo not shown) [Example 73, 1-(6-cyano-5-(trifluoromethyl)pyridin-3-yl)-N-(5-(4-((4-(1-(2-(2,6-dioxopiperidin-3-yl)-1,3-dioxoisoindolin-5-yl)piperidin-4-yl)piperazin-1-yl)methyl)piperidin-1-yl)pyridin-2-yl)piperidine-4-carboxamide]",55%,88%,92%,
"N#Cc1ccc(N2CCC(C(=O)Nc3ccc(N4CCC(CCN5CCN(C6CN(c7ccc8c(c7)C(=O)N(C7CCC(=O)NC7=O)C8=O)C6)CC5)CC4)cn3)CC2)cc1C(F)(F)F (stereo not shown) [Example 99, 1-(4-cyano-3-(trifluoromethyl)phenyl)-N-(5-(4-(2-(4-(1-(2-(2,6-dioxopiperidin-3-yl)-1,3-dioxoisoindolin-5-yl)azetidin-3-yl)piperazin-1-yl)ethyl)piperidin-1-yl)pyridin-2-yl)piperidine-4-carboxamide]",70%,98%,96%,
"N#Cc1ccc(N2CCC(C(=O)Nc3ncc(N4CCC(CN5CCN(C[C@H]6CCN(c7cc8c(cc7F)C(=O)N(C7CCC(=O)NC7=O)C8=O)C6)CC5)CC4)cn3)CC2)cc1C(F)(F)F (stereo partly drawn) [Example 160, 1-(4-cyano-3-(trifluoromethyl)phenyl)-N-(5-(4-((4-(((3R)-1-(2-(2,6-dioxopiperidin-3-yl)-6-fluoro-1,3-dioxoisoindolin-5-yl)pyrrolidin-3-yl)methyl)piperazin-1-yl)methyl)piperidin-1-yl)pyrimidin-2-yl)piperidine-4-carboxamide]",-19%,4%,71%,
"N#Cc1ccc(N2CCC(C(=O)Nc3ccc(N4CCC(CCN5CCC6(CC5)CN(c5ccc7c(c5)C(=O)N(C5CCC(=O)NC5=O)C7=O)C6)CC4)cn3)CC2)cc1C(F)(F)F (stereo not shown) [Example 95, 1-(4-cyano-3-(trifluoromethyl)phenyl)-N-(5-(4-(2-(2-(2-(2,6-dioxopiperidin-3-yl)-1,3-dioxoisoindolin-5-yl)-2,7-diazaspiro[3.5]nonan-7-yl)ethyl)piperidin-1-yl)pyridin-2-yl)piperidine-4-carboxamide]",62%,96%,97%,

# From patent US12122763B2, “Substituted piperidines for androgen receptor degradation” (UBIX THERAPEUTICS, INC., priority 2020, dated 2024)
